The text below walks through data of patent publication US9896474B2, “(3A,9B,10A,13A,14B,17A,20S,22E)-ergosta-5,7,22-trien-3-ol and methods of preparing and using the same” (priority 2014, dated 2018).

In brackets after ≈: the same amount, converted by molar mass. Several values for one entry are separate records, joined by “and”; a condition that tells them apart may be missing. Identical values can stand only once. Where only a bound is given, the exact number is not on record here.

The subject of data set [1] is H22 liver cancer model. Kind of data set: Antitumor experiment against H22 tumor bearing mice. It counts as in vivo. As to conditions: 10 days; for Net weight variation (g) / Tumor weight: x ± s. An excerpt: Antitumor Experiment of C310-6 Against H22 Tumor Bearing Mice
H22 tumor bearing mice were adopted to observe the effect of the anti-liver cancer of five classes of mixtures.
H22 tumor bearing mouse inoculated with the tumor for 8-13 days and in good condition was killed by dislocation. Body surface of the mouse was disinfected by alcohol. The tumors were separated from the mouse and placed in sterile petri dish containing normal saline in a sterile environment (super clean bench). The tumors were cut into small piece and transferred to a tissue homogenizer, the normal saline was added with a volume ratio of the tumor piece to the normal saline being 1:3, a resulting homogenate was put into a 50 mL sterile centrifuge tube. 0.2 mL of the homogenate was inoculated to right axilla of each C57BL/6 mouse by 1 mL syringe. The tumor cell suspension was prepared in the sterile environment (the super clean bench), and the serial operations from separation of the abdominal dropsy of the tumor to the tumor inoculation were accomplished in 60 min
(§1) Oral agent of C310-6: a certain weight of C310-6 sample was placed in a mortar, and Tween-80 having a volume of 2% of a certain volume of a solvent was added and fully ground. Thereafter, the normal saline was added and fully stirred to form a solution. Solutions having a concentration of the C310-6 sample of 24 mg/mL, 8 mg/mL, and 2.7 mg/mL were prepared.
(§2) Oral agent of CTX: CTX pill was removed from a film and a certain amount of the pill was placed in a mortar. A certain volume of normal saline was added, fully ground, and mixed to prepare a solution having a concentration of CTX to be 3.4 mg/mL.
(§3) 60 experimental mice were divided into 6 groups with each group having 10 mice, a half of the mice being female and another half of the mice being male. The groups are specifically as follows: 1) group administered with a low dose of C310-6 (27 mg/kg), 2) group administered with middle dose of C310-6 (80 mg/kg), 3) group administered with high dose of C310-6 (240 mg/kg), 4) group administered with CTX, 5) model group, and 6) blank control group. The above groups, except the model group and the blank control group, are administered with 0.3 mL of the drugs once a day after the injection of the tumor suspension, and the administration was lasted for 10 days. The model group and the blank control group are administered orally with equal volume of aqua solutions containing 2 v. % of Tween-80 for 10 days.
(§4) The weight and food intake of the mice were weighed and recorded every day, and a net weight of each mouse after tumor removal was calculated at the last time.
(§5) The separated tumor tissue was weighed, and the inhibition rate on the tumor growth was calculated according to the following equation: […]
Data of mice in each group were expressed by and were processed by SPSS software, each group was examined by one-way ANOVA.

The test system of data set [2] is Lewis lung cancer model. Kind of data set: Anti-Lewis tumor experiment (Lewis lung cancer bearing mouse). It is filed as in vivo. To be noted: Lewis mice, 10 days; for Net weight variation (g) / Tumor weight: x ± s.
Excerpt: The purpose of the experiment was adopting the Lewis tumor bearing mouse model to observe the antitumor effect of C310-6.
Tumor bearing mouse inoculated with the tumor for 8-13 days and in good condition was killed by dislocation. Body surface of the mouse was disinfected by alcohol. The tumors were separated from the mouse and placed in sterile petri dish containing normal saline in a sterile environment (super clean bench). The tumors were cut into small piece and transferred to a tissue homogenizer, the normal saline was added with a volume ratio of the tumor piece to the normal saline being 1:3, a resulting homogenate was put into a 50 mL sterile centrifuge tube. 0.2 mL of the homogenate was inoculated to right axilla of each KM mouse by 1 mL syringe. The tumor cell suspension was prepared in the sterile environment (the super clean bench), and the serial operations from the tumor separation to the tumor inoculation were accomplished in 60 min
as §1, §2
as §3, with “0.2” for “0.3”
as §4, §5
Data of mice in each group were expressed by corresponding data and were processed by SPSS software, each group was examined by one-way ANOVA.

Data set [3] has as its system human lung cancer cells A549. Kind of data set: iCELLigence real-time cell-analyzer (RTCA) growth monitoring, A549. It is filed as cell-based. As to conditions: 1.6-100 μg/mL, 48 hrs, FIG. 7.
Data set [4] has as its system human hepatoma cells Hep-g2. Kind of data set: iCELLigence real-time cell-analyzer (RTCA) growth monitoring, Hep-g2. It counts as cell-based. To be noted: 1.6-100 μg/mL, 48 hrs, FIG. 6. On the procedure:
1. Eight-well plate (E-Plate L8) supplied by ACEA Bio (Hangzhou) Co. Ltd. was combined with an iCELLigence real-time cell-analyzer (RTCA). 150 μL of a complete F-12K medium was added to each well and the eight-well plate was placed in an incubator at a temperature of 37° C. and an atmosphere of 5% CO2, and the background data were regulated to 40-130. The compound C310-6 was fully dissolved by dimethyl sulfoxide to concentrations of 100 mg/mL, 50 mg/mL, 25 mg/mL, 12.5 mg/mL, 6.3 mg/mL, 3.1 mg/mL, and 1.6 mg/mL, and then diluted to by the complete F-12K medium obtain working solutions having concentrations of 10 mg/mL, 5 mg/mL, 2.5 mg/mL, 1.25 mg/mL, 0.63 mg/mL, 0.31 mg/mL, and 0.16 mg/mL. Well cultivated human hepatoma cells Hep-g2 were digested by trypsin and diluted into live cell suspensions with a concentration of 4×10^4/mL. Thereafter, 345 μL of the live cell suspension of C310-6 was inoculated to each well of an eight-well plate, and then 5 μL of the working solution was added to each well to enable final concentrations of the C310-6 compound to be 100 μg/mL, 50 μg/mL, 25 μg/mL, 12.5 μg/mL, 6.3 μg/mL, 3.1 μg/mL, and 1.6 μg/mL. An eighth hole was added with the complete F-12K medium containing 1 wt. % of dimethyl sulfoxide as a blank control group, and was displaced into the incubator at 37° C. and 5% CO2 for 48 hrs.

In data set [5] the test system is human lung cancer cells A549. Description: MTT assay on human lung cancer cells A549. It counts as cell-based. As to conditions: A549 section, 48 hrs, OD 490 nm, read-out: 1050 value (cell viability curve). On the technique in general: Tetrazolium dyes change colour on reduction, which living cells bring about.
The subject of data set [6] is human hepatoma cells Hep-g2. Kind of data set: MTT assay on human hepatoma cells Hep-g2. It is filed as cell-based. As to conditions: HepG2, 48 hrs, OD 490 nm, read-out: 1050 value (cell viability curve). Here is the method:
a. 250 mg of 3-(4,5-dimethylthiazol-2-yl)-2,5-diphenyltetrazolium bromide (MTT) was dissolved by 50 mL of phosphate buffered saline (PBS) having a concentration of 0.01 mol/L and PH=7.45 to yield a MTT solution having a final concentration of 5 mg/mL. The MTT solution was dispensed and protected against light at the temperature of −20° C. after filtration and sterilization.
b. A suspension of single cell line was prepared and inoculated into 96-well plate (cells were diluted to a concentration of 4×10^4/mL by the F-12K basic culture medium, 100 μL diluted cells were added to each well and cultivated at 37° C., 5% CO2 for 20 hrs, each group was provided with 4 parallel samples).
c. The culture medium was removed; and new culture mediums were prepared according to serial concentration of the antitumor drug (C310-6), each well was added with 100 μL of the new culture medium and cells were cultivated for 48 hrs.
d. 20 μL of MTT solution having the concentration of 5 mg/mL was added to each well for incubating the cells for 4 hrs.
e. […]
f. OD values were measured by a microplate reader, λ=490 nm
g. A cell viability curve was charted, 1050 value was calculated to be 14.152 μg/mL, which means that the compound has excellent human hepatoma cells Hep-g2 activity resistance.

Regarding `O=P1(N(CCCl)CCCl)NCCCO1` (centres unmarked) [CTX, cyclophosphamide, reference compound], in data set [1] (20 mg/kg oral once a day), the “Liver transfer rate (%)” value stood at 0%, the “Survival rate (%)” value amounted to 100%, the “Tumor inhibition rate (%)” value stood at 52.9% and the “Net weight variation (g)” value is recorded as 1.73 ± 2.73**※※ g. In addition, the “Tumor weight” value in data set [1] (20 mg/kg oral once a day) was 0.25 ± 0.21 g. For the same compound, in data set [2] (20 mg/kg oral once a day), the “Lung cancer transmission rate (%)” value was 20%, the “Survival rate (%)” value came to 100%, the “Tumor inhibition rate (%)” value is listed as 46.29% and the “Net weight variation (g)” value is on record as −0.94 ± 1.03**※※ g. Besides, the “Tumor weight” value in data set [2] (20 mg/kg oral once a day) was 0.90 ± 0.39 g.

Turning to `CC(C)[C@@H](C)/C=C/[C@H](C)[C@@H]1CC[C@@H]2C3=CC=C4C[C@H](O)CC[C@@]4(C)[C@@H]3CC[C@]21C` [C310-6, (3α,9β,10α,13α,14β,17α,20S,22E)-ergosta-5,7,22-trien-3-ol], the “growth of human lung cancer cells A549 (real-time data)” value in data set [3] was “inhibited”. Moreover, the “growth of human hepatoma cells Hep-g2 (real-time data)” value in data set [4] was “inhibited”. Besides, the IC50 in data set [5] and in data set [6] was 14.2 µg/mL (≈ 35.7 µM) in each case. Also, the “Liver transfer rate (%)” value in data set [1] (27 mg/kg oral once a day), in data set [1] (80 mg/kg oral once a day) and in data set [1] (240 mg/kg oral once a day) was 0% in each case. In addition, the “Survival rate (%)” value in data set [1] (27 mg/kg oral once a day), in data set [1] (80 mg/kg oral once a day), in data set [1] (240 mg/kg oral once a day), in data set [2] (27 mg/kg oral once a day), in data set [2] (80 mg/kg oral once a day) and in data set [2] (240 mg/kg oral once a day) was 100% in each case. Also, the “Tumor inhibition rate (%)” value in data set [1] (27 mg/kg oral once a day) was 23.4%; in data set [1] (80 mg/kg oral once a day, 80 mg/kg), > 40% and 41.1%; in data set [1] (240 mg/kg oral once a day, 240 mg/kg) it was > 40% and 64.4%; in data set [2] (27 mg/kg oral once a day) it was 15.76%; in data set [2] (80 mg/kg oral once a day), 28.39%; in data set [2] (240 mg/kg oral once a day) it was 44.59%. Also, the “Net weight variation (g)” value in data set [1] (27 mg/kg oral once a day) was 6.92 ± 2.65∘∘ g; in data set [1] (80 mg/kg oral once a day), 7.78 ± 3.72∘∘ g; in data set [1] (240 mg/kg oral once a day, weight after tumor removal vs original) it was 5.70 ± 4.05*※∘∘ g; in data set [2] (27 mg/kg oral once a day) it was −0.36 ± 1.33**※※ g; in data set [2] (80 mg/kg oral once a day), −0.95 ± 1.30**※※ g; in data set [2] (240 mg/kg oral once a day), −0.61 ± 1.36**※※ g. For the same compound, the “Tumor weight” value in data set [1] (27 mg/kg oral once a day) is recorded as 0.42 ± 0.60 g; in data set [1] (80 mg/kg oral once a day), 0.32 ± 0.43 g; in data set [1] (240 mg/kg oral once a day), 0.19 ± 0.18 g; in data set [2] (27 mg/kg oral once a day), 1.42 ± 0.94 g; in data set [2] (80 mg/kg oral once a day), 1.21 ± 0.26 g; in data set [2] (240 mg/kg oral once a day), 0.93 ± 0.45 g. Besides, the “Lung cancer transmission rate (%)” value in data set [2] (27 mg/kg oral once a day) was 40%; in data set [2] (80 mg/kg oral once a day), 50%; in data set [2] (240 mg/kg oral once a day), 30%.
